These results are taken from ChEMBL document CHEMBL6078689, “Discovery of novel biaryl urea derivatives against IL-1β release with low toxicity based on NEK7 inhibitor” (Eur J Med Chem, 2025).

The source made the active and inactive calls. The rule behind the calls is not given here. Some results are limits rather than exact numbers.

Data set [1] has as its system BMDM. The data set is described as follows: Inhibition of NLRP3 inflammasome activation in LPS-induced C57BL/6 mouse BMDM cells assessed as reduction in IL-1beta release at 0.1 uM preincubated with LPS for 1 hrs followed by compound addition and measured after 2 hrs by ELISA relative to control. It is filed as cell-based.
Data set [2] in a line: Cytotoxicity against C57BL/6 mouse BMDM cells assessed as cell viability incubated for 4 hrs by CCK-8 assay. The conditions noted are these: bone marrow-derived macrophages (BMDM cells). The format is toxicity, cell-based.
Data set [3] can be described thus: Inhibition of NLRP3 inflammasome activation in LPS-induced C57BL/6 mouse BMDM cells assessed as reduction in IL-1beta release preincubated with LPS for 1 hrs followed by compound addition and measured after 2 hrs by ELISA. The conditions noted are these: C57BL/6, BMDM. It is filed as cell-based.
Data set [4] in a line: Selectivity index, ratio of CC50 for C57BL/6 mouse BMDM cells to IC50 for Inhibition of NLRP3 inflammasome activation in LPS-induced C57BL/6 mouse BMDM cells assessed as reduction in IL-1beta release. It is filed as toxicity, cell-based. The conditions noted are these: bone marrow-derived macrophages (BMDM cells), read-out: Ratio CC50/IC50.
Data set [5] is described as follows: Cytotoxicity against C57BL/6 mouse BMDM cells assessed as cell viability at 0.1 uM incubated for 4 hrs by CCK-8 assay relative to control. It is filed as toxicity, cell-based. The following applies: bone marrow-derived macrophages (BMDM cells), read-out: Activity.
For data set [6], the system named is BMDM. The data set is described as follows: Binding affinity to NEK7 in LPS-primed C57BL/6 mouse BMDM cells assessed as thermal stabilization preincubated with LPS for 1 hrs followed by compound addition and incubated for 2 hrs under 48 to 53 degreeC by CETSA. It is filed as cell-based.
For data set [7], the target named is NLRP3-NEK7 (Mus musculus) (UniProt Q8R4B8+Q9ES74). Description: Inhibition of NLRP3/NEK7 protein-protein interaction in LPS-induced C57BL/6 mouse BMDM cells by co-immunoprecipitation based Western blot analysis. The format is cell-based.
The target in data set [8] is Serine/threonine-protein kinase Nek7 (Homo sapiens, UniProt Q8TDX7). Description: Inhibition of N-terminal GST-tagged full-length recombinant human NEK7 extracted from baculovirus infected in Sf9 cells preincubated for 20 mins followed by [32P]-ATP addition and measured after 2 hrs.
Chain of Serine/threonine-protein kinase Nek7 (Q8TDX7 whole entry): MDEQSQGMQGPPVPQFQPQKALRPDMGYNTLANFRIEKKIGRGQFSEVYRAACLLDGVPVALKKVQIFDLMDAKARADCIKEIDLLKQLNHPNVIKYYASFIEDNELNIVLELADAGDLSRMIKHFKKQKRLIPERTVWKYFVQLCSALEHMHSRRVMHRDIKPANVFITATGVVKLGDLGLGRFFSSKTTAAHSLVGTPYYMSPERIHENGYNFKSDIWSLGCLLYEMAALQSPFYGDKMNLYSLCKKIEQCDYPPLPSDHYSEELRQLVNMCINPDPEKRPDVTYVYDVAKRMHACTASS

Chain of NLRP3-NEK7 (Mus musculus) (Q8R4B8 whole entry, looked up): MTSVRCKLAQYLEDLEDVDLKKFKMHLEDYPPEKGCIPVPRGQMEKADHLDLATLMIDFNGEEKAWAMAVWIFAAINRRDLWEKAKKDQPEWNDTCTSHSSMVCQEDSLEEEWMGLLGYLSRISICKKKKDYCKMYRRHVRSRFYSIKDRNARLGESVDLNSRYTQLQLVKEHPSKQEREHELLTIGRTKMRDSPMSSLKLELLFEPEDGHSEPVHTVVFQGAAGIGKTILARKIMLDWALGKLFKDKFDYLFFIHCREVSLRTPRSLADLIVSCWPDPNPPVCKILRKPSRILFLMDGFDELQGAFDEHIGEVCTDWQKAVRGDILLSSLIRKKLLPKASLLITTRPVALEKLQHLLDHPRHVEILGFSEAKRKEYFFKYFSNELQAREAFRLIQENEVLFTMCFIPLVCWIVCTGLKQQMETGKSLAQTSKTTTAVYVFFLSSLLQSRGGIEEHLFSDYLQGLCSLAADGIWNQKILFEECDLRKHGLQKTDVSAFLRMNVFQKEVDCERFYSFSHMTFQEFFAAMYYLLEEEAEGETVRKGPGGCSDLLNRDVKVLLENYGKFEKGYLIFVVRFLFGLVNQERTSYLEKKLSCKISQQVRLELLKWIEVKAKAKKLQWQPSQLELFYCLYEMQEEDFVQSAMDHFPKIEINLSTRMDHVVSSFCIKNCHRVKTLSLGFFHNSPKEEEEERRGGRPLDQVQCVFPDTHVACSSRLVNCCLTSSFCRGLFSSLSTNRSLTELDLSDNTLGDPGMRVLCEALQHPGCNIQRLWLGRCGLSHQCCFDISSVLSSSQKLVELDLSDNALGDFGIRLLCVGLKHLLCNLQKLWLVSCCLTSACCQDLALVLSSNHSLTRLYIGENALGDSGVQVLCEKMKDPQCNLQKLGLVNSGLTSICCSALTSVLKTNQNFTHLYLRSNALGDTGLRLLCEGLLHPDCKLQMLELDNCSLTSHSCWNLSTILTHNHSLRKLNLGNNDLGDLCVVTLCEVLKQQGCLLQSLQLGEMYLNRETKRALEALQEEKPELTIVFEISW
Chain of NLRP3-NEK7 (Mus musculus) (Q9ES74 whole entry, looked up): as the sequence (Q8TDX7 whole entry) above, with P14T, A52S, E150D, M273I, V285I, T286A, S302T counted along it

Consider `CC(C)(O)c1coc(S(=O)(=O)NC(=O)Nc2c3c(cc4c2CCC4)CCC3)c1`, for which the inhibition with BMDM [1] came to 66.7%. Also, the half-maximal cytotoxic concentration (CC50) at 4 h in data set [2] was more than 10000 nM. In data set [3], the concentration for half-maximal inhibition (IC50) was 85 nM. Further, in data set [4], the selectivity ratio was more than 118.
For `CN1CCN(Cc2ccc(NC(=O)Nc3ccc(-c4ccc(N)nc4)cc3F)cc2C(F)(F)F)CC1`, in the data set on BMDM [1], the inhibition came out at 82.3%. Further, the viability at 4 h, 0.1 µM in data set [5] is 86%. In addition, the CC50 at 4 h in data set [2] is 247 nM. In addition, the IC50 in data set [3] stood at 30 nM. Also, in data set [4], the selectivity ratio worked out at 8.26.
Turning to `CN1CCN(Cc2ccc(NC(=O)Nc3ccc(-c4nc(N)c5ccccc5n4)cc3F)cc2C(F)(F)F)CC1`, the viability at 4 h, 0.1 µM in data set [5] is 108%.
As to `CC(=O)Nc1ccc(-c2ccc(NC(=O)c3ccc(CN4CCN(C)CC4)c(C(F)(F)F)c3)c(F)c2)cn1`, the inhibition in the data set with BMDM [1] stood at 0%. The viability at 4 h, 0.1 µM in data set [5] is 92.6%.
Turning to `CN1CCN(Cc2ccc(NC(=O)Nc3ccc(-c4cc5ccccc5nc4N)cc3F)cc2C(F)(F)F)CC1`, the viability at 4 h, 0.1 µM in data set [5] amounted to 86%.
On to `CN1CCN(Cc2ccc(NC(=O)Nc3ccc(-c4ccnc(N)n4)cc3F)cc2C(F)(F)F)CC1`, for which, in the data set with BMDM [1], the inhibition is 25.7%. For the same molecule, in data set [5], the viability at 4 h, 0.1 µM was 78%.
In the same order, the values of `CN1CCN(Cc2ccc(NC(=O)Nc3ccc(-c4nc(N)cc5ccccc45)cc3F)cc2C(F)(F)F)CC1` are 30.6% and 122%.
With `CN1CCN(Cc2ccc(NC(=O)Nc3ccc(-c4cccnc4N)cc3F)cc2C(F)(F)F)CC1`, the viability at 4 h, 0.1 µM in data set [5] turned out to be 65%.
Regarding `CN1CCN(Cc2ccc(NC(=O)Nc3ccc(-c4nccnc4N)cc3F)cc2C(F)(F)F)CC1`, the inhibition in the data set on BMDM [1] was 28.2%. Also, the viability at 4 h, 0.1 µM in data set [5] turned out to be 107%.
Regarding `CC(=O)Nc1ccc(-c2ccc(NC(=O)Nc3ccc(CN4CCN(C)CC4)c(C(F)(F)F)c3)c(F)c2)cn1`, the Activity result in the data set on BMDM [6] is “Active; Compound Is Capable Of Binding To Nek7”. In addition, in the data set with BMDM [1], the inhibition amounted to 90.3%. Moreover, the inhibition result in data set [7] was “Active”. Also, the viability at 4 h, 0.1 µM in data set [5] came out at 98.3%. Besides, the CC50 at 4 h in data set [2] was 3840 nM. Moreover, the concentration for half-maximal inhibition (IC50) in data set [3] was found to be 48 nM. Moreover, the selectivity ratio in data set [4] came out at 80.3.
As for `CN1CCN(Cc2ccc(NC(=O)Nc3ccc(-c4cnc5cccnn45)cc3F)cc2C(F)(F)F)CC1`, in the data set with BMDM [1], the inhibition is -9.39%. Besides, the viability at 4 h, 0.1 µM in data set [5] was determined as 91.4%.
In the same order, the values of `CN1CCN(Cc2ccc(NC(=O)Nc3ccc(-c4ccnc(N)c4)cc3F)cc2C(F)(F)F)CC1` are 3.67% and 112%.
As for `CN1CCN(Cc2ccc(NC(=O)Nc3ccc(-c4ncc(N)cn4)cc3F)cc2C(F)(F)F)CC1`, the viability at 4 h, 0.1 µM in data set [5] was found to be 71.8%.
As to `CN1CCN(Cc2ccc(NC(=O)Nc3ccc(-c4cnc(N)c5ccccc45)cc3F)cc2C(F)(F)F)CC1`, in the data set on BMDM [1], the inhibition is -7.76%. Further, the viability at 4 h, 0.1 µM in data set [5] was 108%.
As to `COc1ccc(-c2ccc(NC(=O)Nc3ccc(CN4CCN(C)CC4)c(C(F)(F)F)c3)c(F)c2)cn1`, the viability at 4 h, 0.1 µM in data set [5] was found to be 104%.
For the molecule `CN1CCN(Cc2ccc(NC(=O)Nc3ccc(-c4cn(C5CC5)c5ncnc(N)c45)cc3F)cc2C(F)(F)F)CC1`, the viability at 4 h, 0.1 µM in data set [5] came out at 17.2%. Besides, the 50% inhibitory concentration (IC50) in data set [8] was less than 100 nM.
For the molecule `CN1CCN(Cc2ccc(NC(=O)Nc3ccc(-c4cncnc4N)cc3F)cc2C(F)(F)F)CC1`, the inhibition with BMDM [1] is -1.08%. The viability at 4 h, 0.1 µM in data set [5] came out at 106%.
As for `CN1CCN(Cc2ccc(NC(=O)Nc3ccc(-c4ccc(N)cn4)cc3F)cc2C(F)(F)F)CC1`, the viability at 4 h, 0.1 µM in data set [5] amounted to 104%.
Take `CC(=O)Nc1ccc(-c2ccc(NC(=O)Nc3ccc(CN4CCN(C)CC4)cc3)c(F)c2)cn1`: the viability at 4 h, 0.1 µM in data set [5] worked out at 94.9%.
Regarding `CN1CCN(Cc2ccc(NC(=O)Nc3ccc(-c4cccc(N)n4)cc3F)cc2C(F)(F)F)CC1`, the viability at 4 h, 0.1 µM in data set [5] is 109%.
With `CN1CCN(Cc2ccc(NC(=O)Nc3ccc(-c4c(N)ncc5ccccc45)cc3F)cc2C(F)(F)F)CC1`, the viability at 4 h, 0.1 µM in data set [5] is 61.1%.
On the same count and under the same terms, the figure for `CC(=O)Nc1ccc(-c2ccc(C(=O)Nc3ccc(CN4CCN(C)CC4)c(C(F)(F)F)c3)c(F)c2)cn1` is 90.4%; for `CN1CCN(Cc2ccc(NC(=O)Nc3ccc(-c4ccc(O)nc4)cc3F)cc2C(F)(F)F)CC1` it is 106%.
For the molecule `CNc1ccc(-c2ccc(NC(=O)Nc3ccc(CN4CCN(C)CC4)c(C(F)(F)F)c3)c(F)c2)cn1`, in the data set on BMDM [1], the inhibition turned out to be 41.5%. Further, the viability at 4 h, 0.1 µM in data set [5] is 95.5%.
For the molecule `CC(=O)Nc1ccc(-c2ccc(NC(=O)Nc3cccc(C(F)(F)F)c3)c(F)c2)cn1`, in the data set on BMDM [1], the inhibition was -7.98%. In addition, in data set [5], the viability at 4 h, 0.1 µM came to 96.4%.
